In PubChem BioAssay AID2060512 (Molecular Pharmacology Branch, DTP, NCI, 2025):
“And” between values parts separate entries of the source, which are not always exact repeats. Equal entries are not always repeated.

Tested on: 186277-243-T-J2-PDC complex spheroid viability
Experiment: Anticancer human tumor 186277-243-T-J2-PDC patient-derived colon adenocarcinoma cell line growth inhibition [GQUAD]
Details: for viability, T/C: stronger effect = lower value
Source text: DNA G-quadruplex Stabilizer Agents in Combinations in Complex Spheroids
A high-throughput screen of multi-cell type tumor spheroids was designed to identify active combinations of DNA G-quadruplex stabilizer agents and targeted small molecules. Complex spheroids include a stromal component modeled by human endothelial cells (HUVEC) and fibroblasts modeled by human mesenchymal stem cells (MSCs). The concentration ranges selected for each drug and investigational agent were based upon clinically achievable concentrations if the clinical Cmax of the agent was known.
Compounds. The drugs and investigational agents: pidnarulex (CX-5461; NSC782164), APTO-253 (NSC789042), BRACO-19 (NSC847499), peposertib (NSC802822), ceralasertib (NSC780249), elimusertib (NSC800525), camonsertib (NSC841442), AZD-1390 (NSC803789), olaparib (NSC753686), talazoparib (NSC767125), ART-558 (NSC835418), sotorasib (NSC818433), MRTX-1133 (NSC836407), SN-38 (NSC673596), topotecan (NSC609699), etoposide (NSC141540), doxorubicin (NSC123127), gemcitabine (NSC613327), 5-fluorouracil (NSC19893), paclitaxel (NSC125973), vemurafenib (NSC761431), panobinostat (NSC761190), R-306465 (JNJ-16241199; NSC773264), adavosertib (NSC754352), TP-3654 (NSC805149), carboplatin (NSC241240), KSQ-4279 (NSC840948), and staurosporine (NSC755774) were obtained from the National Cancer Institute (NCI) Developmental Therapeutics Program Chemical Repository (34). The FDA-approved anticancer drug set is available from the NCI Developmental Therapeutics Program. […] The stock solutions were prepared in dimethyl sulfoxide (DMSO, Sigma-Aldrich, St. Louis, MO, cat. D2650) at 800-fold the tested concentration and stored at -70 degrees C prior to their use. All drugs and investigational agents were tested over a range starting from a high concentration at or near the clinical Cmax and decreasing in half-log increments. If the clinical Cmax for an agent had not been determined, the highest concentration tested was 10 microM.
2.3 Cell Culture. All cells were maintained in an incubator at 37 degrees C and 5% CO2 with 95% humidity. The PDC lines were cultured according to standard operating procedures established by the NCI PDMR. All PDCs were thawed and cultured in Matrigel-coated flasks prepared with a working solution of 1X Ham's F-12 nutrient mix, without supplementation (Invitrogen, cat. 11765054), 100 U/mL penicillin-streptomycin (Invitrogen, cat. 15140122), and 2.5% Matrigel (Corning Inc., cat. 354248) for the first three passages. The 857933-349-R-J2-PDC line was cultured in 6C/Colon 1B media, which includes advanced DMEM/F-12 (Thermo Fisher Scientific, cat. 12634028), 10 mM HEPES (Thermo Fisher Scientific, cat. 15630080), 1X GlutaMAX supplement (Thermo Fisher Scientific, cat. 35050061), 0.1 mg/mL primocin (InvivoGen, cat. ant-pm-2), 10% defined fetal bovine serum, heat inactivated (HyClone Laboratories Inc., cat. SH30070.03HI), 50% L-WRN conditioned media (ATCC, cat. CRL-3276), 1.25 mM N-Acetyl-L-cysteine (Sigma-Aldrich, cat. A9165), 10 mM nicotinamide (Sigma-Aldrich, cat. N0636), 1X B-27 supplement (Thermo Fisher Scientific, cat. 17504044), 1X N-2 supplement (Thermo Fisher Scientific, cat. 17502048), 10 microM Y-27632 dihydrochloride (Tocris Bioscience, cat. 1254), and 50 ng/mL human EGF recombinant protein (Thermo Fisher Scientific, cat. PHG0311). The 485176-168-R4-J1-PDC line was cultured in Panc media, which includes all 6C/Colon 1B media components plus 100 ng/mL human FGF-10 (Thermo Fisher Scientific, cat. 100-26), 500 nM SB-431542 (Selleckchem, cat. S1067), and gastrin (Tocris, cat. 3006).
[…]

[1] = compound alone, run of 04/16/2024
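Further: spheroids exposed to drugs for 7 days.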
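Wherever viability, T/C is given: 100% = DMSO vehicle control viability.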

| IC50 (curve of compound) | IC50 [1] | IC50 (compound alone, run of 04/22/2024) [nM] | Structure (SMILES) | viability, T/C (compound 0.0316 µM) | viability, T/C (compound 0.1 µM) | viability, T/C (compound 0.316 µM) | viability, T/C (compound 1 µM) | viability, T/C (compound 3.16 µM) | viability, T/C (compound 10 µM) | viability, T/C (compound 0.000999 µM) | viability, T/C (compound 0.00316 µM) | viability, T/C (compound 0.00999 µM) | viability, T/C (compound 0.0999 µM) |
| --- | --- | --- | --- | --- | --- | --- | --- | --- | --- | --- | --- | --- | --- |
| 3130 nM and 1270 nM and 1310 nM |  |  | COc1cc(C2c3cc4c(cc3C(OC3OC5COC(C)OC5C(O)C3O)C3COC(=O)C23)OCO4)cc(OC)c1O (stereo not given) | 103% and 110% and 100% | 100% and 101% and 85.4% | 102% and 83.6% and 82.1% | 72.1% and 50.7% and 50% | 52.7% and 37% and 36.2% | 19.4% and 20.9% and 16.9% |  |  |  |  |
| 6400 nM and 4880 nM and 5940 nM |  |  | COc1ccc([C@@H](O)c2cc(-c3ncnc4cc(N5CCOCC5)ccc34)c(F)cc2Cl)nn1 | 97.6% and 103% (2×) | 84.1% and 107% and 101% | 115% and 112% and 97.2% | 95.7% and 90.8% and 108% | 63% and 66.2% and 70% | 41.8% and 24.9% and 33.5% |  |  |  |  |
| 649 nM and 388 nM and 494 nM |  |  | COc1cccc2c1C(=O)c1c(O)c3c(c(O)c1C2=O)CC(O)(C(=O)CO)CC3OC1CC(N)C(O)C(C)O1 (stereo not given) | 108% and 97.9% and 88.6% | 117% and 91.2% and 90.2% | 83.2% and 57.1% and 66.7% | 29.7% and 15.8% and 22.8% | 4.47% and 0.22% and 0.3% | 0.23% and 0.19% and 0.13% |  |  |  |  |
| > 10000 nM |  |  | COc1ncnc(C2CC2)c1-c1ncc2cnn(Cc3ccc(-c4nc(C(F)(F)F)cn4C(C)C)cc3)c2n1 | 90% and 113% and 103% | 95.5% and 108% and 94% | 90.5% and 94.9% and 102% | 88.4% and 101% and 105% | 96% and 96.8% and 92.5% | 76.6% and 96.9% and 106% |  |  |  |  |
|  | > 10000 nM | > 10000 | Cc1[nH]c2ccc(F)cc2c1-c1nc2c3cccnc3c3ncccc3c2[nH]1 | 100% [middle of 12 runs] | 101% [middle of 12 runs] |  | 107% [middle of 12 runs] | 98.9% [middle of 12 runs] | 92.4% [middle of 12 runs] |  |  |  |  |
| 41.9 nM and 56.4 nM and 63.2 nM |  |  | Cc1[nH]c2ccccc2c1CCNCc1ccc(/C=C/C(=O)NO)cc1 | 60% and 92.1% and 97.2% |  | 0.49% and 2.16% and 2.64% |  |  |  | 107% and 92.7% and 99% | 89.4% and 96.9% and 90% | 92.2% and 94.9% and 101% | 18.4% and 8.39% and 19.1% |
| > 10000 nM |  |  | Cc1cccc(N(C)C(=O)C2C(O)CCN2c2nc(C)cc(C(F)(F)F)c2C#N)c1 (stereo not given) | 109% and 93.9% and 95.1% | 91% and 94.3% and 102% | 95.7% and 97.1% and 115% | 102% and 99.7% and 99.6% | 116% and 97.7% and 102% | 102% and 104% and 91.5% |  |  |  |  |
|  | 2.36 µM [middle of 12 runs] |  | Cc1cnc(CNC(=O)c2c(=O)c3ccc(N4CCCN(C)CC4)nc3n3c2sc2ccccc23)cn1 | 97.7% [middle of 12 runs] |  | 76.8% [middle of 12 runs] | 61.5% [middle of 12 runs] | 43.7% [middle of 12 runs] | 39.7% [middle of 12 runs] |  |  |  |  |
| > 316 nM |  |  | Cn1ncnc1[C@H]1c2n[nH]c(=O)c3cc(F)cc(c23)N[C@@H]1c1ccc(F)cc1 | 111% and 110% and 97.4% |  | 92.4% and 86.5% and 90.8% |  |  |  | 99.3% and 96.1% and 115% | 93.5% and 96.6% and 91% | 94.1% and 100% and 98.4% | 87.5% and 91.4% and 106% |
| < 31.6 nM |  |  | Nc1ccn(C2OC(CO)C(O)C2(F)F)c(=O)n1 (stereo not given) | 17% and 8.09% and 31% | 11.1% and 8.48% and 13.3% | 11.3% and 9.27% and 10.2% | 11.5% and 8.56% and 11.1% | 12.8% and 8.21% and 8.72% | 10.8% and 8.32% and 10.6% |  |  |  |  |
| 172 nM and 183 nM and 180 nM |  |  | O=C(NO)c1cnc(N2CCN(S(=O)(=O)c3ccc4ccccc4c3)CC2)nc1 | 108% and 104% and 95.6% | 87.7% and 95.5% and 89.9% | 7.49% and 8.52% and 11.5% | 0.33% and 0.31% and 0.48% | 0.27% and 0.25% and 0.13% | 0.27% and 0.25% and 0.15% |  |  |  |  |
| > 10000 nM |  |  | O=C(c1cc(Cc2n[nH]c(=O)c3ccccc23)ccc1F)N1CCN(C(=O)C2CC2)CC1 | 102% and 105% and 100% | 108% (2×) and 94.6% | 96.4% and 112% and 87.3% | 94.3% and 104% and 77.3% | 93.3% and 92% and 82.2% | 62.3% and 64.2% and 66.5% |  |  |  |  |
| 5940 nM and > 10000 nM |  |  | O=c1[nH]cc(F)c(=O)[nH]1 | 94.6% and 93.4% and 110% | 94.9% and 95.8% and 93.8% | 104% and 108% and 112% | 97.6% and 114% and 107% | 62.5% and 75.2% and 60.1% | 39.6% and 52.2% and 50.6% |  |  |  |  |
